Source: the NIST ThermoML archive (doi:10.1021/je060271a)

Settings: 283.15 K, Liquid, Vibrating tube method

CCCCC(=O)OCC(COC(=O)CCCC)(COC(=O)CCCC)COC(=O)CCCC [pentaerythritol tetrapentanoate]
Settings	mass density [kg/m3]
2596 kPa	1028.7
2607.6 kPa	1028.6
2619.2 kPa	1028.8
2631.2 kPa	1028.6
2645.8 kPa	1028.6
2657.4 kPa	1028.6
2670 kPa	1028.7
2684.8 kPa	1028.6
2697.1 kPa	1028.5
2708.7 kPa	1028.6
2721.4 kPa	1028.6
2736.6 kPa	1028.8
2749.1 kPa	1028.6
2762 kPa	1028.6
2777.4 kPa	1028.7
2790.4 kPa	1028.7
2803.7 kPa	1028.6
2819.5 kPa	1028.6
2833.1 kPa	1028.7
2846.4 kPa	1028.7
2860.3 kPa	1028.7
2874 kPa	1028.8
2891 kPa	1028.7
2904.7 kPa	1028.6
2918.7 kPa	1028.8
2935.2 kPa	1028.8
2949.4 kPa	1028.8
2963.8 kPa	1028.8
2978.5 kPa	1028.7
2995.7 kPa	1028.9
3010.3 kPa	1028.8
3025.5 kPa	1028.8
3042.9 kPa	1028.9
3057.8 kPa	1029
3073.4 kPa	1028.9
3091.7 kPa	1028.8
3107 kPa	1028.9
3122.3 kPa	1028.9
3138 kPa	1029
3156.6 kPa	1029
3172.7 kPa	1028.9
3191.8 kPa	1028.9
3207.9 kPa	1029
3224.7 kPa	1028.9
3241.2 kPa	1029
3261.6 kPa	1029
3276.9 kPa	1028.9
3297 kPa	1028.9
3314 kPa	1029
3334.8 kPa	1029.1
3352.3 kPa	1029
3369.8 kPa	1029
3387.8 kPa	1029
3405.8 kPa	1029.1
3427.2 kPa	1029.1
3444.8 kPa	1029.1
3463.4 kPa	1029.2
3485.6 kPa	1029
3505 kPa	1029.1
3523.9 kPa	1029.1
3543.1 kPa	1029.2
3562.2 kPa	1029.1
3585.6 kPa	1029.1
3605.1 kPa	1029.2
3625.3 kPa	1029.2
3645 kPa	1029.4
3665.5 kPa	1029.2
3689.4 kPa	1029.2
3709.5 kPa	1029.3
3729.7 kPa	1029.2
3754.5 kPa	1029.2
3775.8 kPa	1029.2
3797 kPa	1029.3
3821.9 kPa	1029.4
3843.6 kPa	1029.4
3865.6 kPa	1029.3
3887.1 kPa	1029.4
3913.4 kPa	1029.2
3935.4 kPa	1029.2
3957.4 kPa	1029.4
3984.4 kPa	1029.5
4007.1 kPa	1029.3
4030 kPa	1029.5
4053.3 kPa	1029.5
4081.1 kPa	1029.5
4104.4 kPa	1029.6
4128.5 kPa	1029.5
4157.3 kPa	1029.6
4181.3 kPa	1029.5
4205.4 kPa	1029.5
4234.9 kPa	1029.5
4260 kPa	1029.6
4284.7 kPa	1029.5
4314.9 kPa	1029.7
4340 kPa	1029.7
4366.5 kPa	1029.7
4393.7 kPa	1029.7
4426 kPa	1029.7
4453.1 kPa	1029.7
4480.4 kPa	1029.8
4507.9 kPa	1029.8
4542.4 kPa	1029.9
4572 kPa	1029.7
4602.1 kPa	1029.7
4632.8 kPa	1029.7
4669.8 kPa	1029.8
4701.7 kPa	1030
4733 kPa	1029.9
4763.3 kPa	1029.9
4792.9 kPa	1029.8
4797.4 kPa	1029.9
4798.1 kPa	1029.9
4800.3 kPa	1029.9
4801 kPa	1029.8
4803.1 kPa	1030
4805.2 kPa	1029.9
4805.4 kPa	1030
4807.6 kPa	1029.9
4808.8 kPa	1029.9
4810.7 kPa	1029.9
4811.8 kPa	1029.9
4812.5 kPa	1029.9
4813.1 kPa	1029.9
4813.3 kPa	1030
4813.7 kPa	1029.9
4814 kPa	1030
4814.2 kPa	1029.9
4814.4 kPa	1029.9
4819 kPa	1030
4836.2 kPa	1029.9
4855.7 kPa	1029.9
4877.5 kPa	1029.9
4899 kPa	1030
4924.1 kPa	1030
4945.9 kPa	1029.9
4969.3 kPa	1030
4990.9 kPa	1030
5013.2 kPa	1030
5040.4 kPa	1030
5062.7 kPa	1030
5085.9 kPa	1030
5113.1 kPa	1030.1
5136.1 kPa	1030.1
5159.8 kPa	1030
5188.5 kPa	1030.1
5213.2 kPa	1030.2
5238.3 kPa	1030.2
5263.4 kPa	1030
5289.6 kPa	1030.3
5314.9 kPa	1030.1
5344.8 kPa	1030.1
5370.4 kPa	1030.2
5395.8 kPa	1030.2
5426.8 kPa	1030.1
5453.3 kPa	1030.3
5479.6 kPa	1030.3
5512.1 kPa	1030.3
5539.8 kPa	1030.4
5567.4 kPa	1030.3
5595.3 kPa	1030.4
